Target: human 3β-HSD1
Test: 3β-HSD1 inhibition, colorimetric NADH detection assay
Assay type: biochemical
Settings: purified recombinant human 3β-HSD1, 50 μM DHEA, 2 mM NAD+, 1 hour, room temperature, duplicate 10-point CRC; read-out: IC50 (nM), in vitro NADH inhibition
Description: Enzymatic turnover was quantified through NADH generation by purified, recombinant human 3β-HSD1 (expressed in Sf9 insect cells) in the presence of steroidal substrate trans-Dehydroandrosterone (DHEA) that was placed slightly above the experimentally determined Km and saturating amounts of co-factor Nicotinamide adenine dinucleotide (NAD^+). The sequence of recombinant human 3β-HSD1 used is […] […] […] […] […] […] […] (SEQ ID NO: 3). DHEA and NAD+ were enzymatically converted to androstenedione and NADH, respectively. Final NADH concentrations were spectroscopically quantified using a commercially available Amplite™ Colorimetric NADH Assay Kit which utilizes an NADH probe with an absorbance wavelength of 460 nm. Enzymatic assays with a final volume of 25 μL were ran in a 384-well, Greiner Bio-One UV-STAR® assay plate in 50 mM TRIS pH 8.0 assay buffer. […] Compound stocks at 10 mM in DMSO were serial diluted 5-fold in DMSO to generate an ECHO® compatible source plate. 125 nL of DMSO, Trilostane, or serial diluted compounds were then acoustically transferred into an empty UV-STAR® assay plate to give a final assay concentration of 0.5% v/v DMSO. The stamp volume and dilution scheme can be adjusted to accommodate compound potency. The assay can tolerate up to a 5% v/v DMSO final assay concentration. 15 μL of 1 μg purified 3β-HSD1 and 50 μM DHEA (final assay volume concentration) was dispensed per well into the stamped plate, centrifuged for 1 minute at 1000 RPM, covered, and allowed to incubate for 15 minutes at room temp. Enzymatic reactions were initiated upon the addition of 10 μL of NAD^+ diluted in assay buffer to give a final assay volume concentration of 2 mM. The assay plate was centrifuged for 1 minute at 1000 RPM, covered, and incubated at room temperature for 1 hour. 25 μL Amplite™ Colorimetric NADH Assay Kit detection solution (prepared as recommended) was added to all reaction wells, the plate centrifuged for 1 minute at 1000 RPM, covered, and incubated for 15 minutes. Final absorbance values (λ=460 nm) are spectroscopically determined on BioTek® Cytation5 or Synergy4 plate readers. […] From the background subtracted values, the non-inhibited enzyme signal (DMSO treated) was averaged from 32 control reactions. The percent inhibition value was calculated by: % inhibition=(1−((background subtracted inhibited reaction)/(background subtracted non-inhibited average)))*100. The resulting percent inhibition was then plotted in duplicate against corresponding concentration values. The resulting CRCs were fit with a four parameter, variable slope log (inhibitor) vs response equation where Y=bottomvalue+ (topvalue−bottomvalue)/(1+10^((log IC50−X)*Hillslope)) to determine the IC50 values for tested compounds.

Sequence of human 3β-HSD1 (P14060 2-373 limits assumed): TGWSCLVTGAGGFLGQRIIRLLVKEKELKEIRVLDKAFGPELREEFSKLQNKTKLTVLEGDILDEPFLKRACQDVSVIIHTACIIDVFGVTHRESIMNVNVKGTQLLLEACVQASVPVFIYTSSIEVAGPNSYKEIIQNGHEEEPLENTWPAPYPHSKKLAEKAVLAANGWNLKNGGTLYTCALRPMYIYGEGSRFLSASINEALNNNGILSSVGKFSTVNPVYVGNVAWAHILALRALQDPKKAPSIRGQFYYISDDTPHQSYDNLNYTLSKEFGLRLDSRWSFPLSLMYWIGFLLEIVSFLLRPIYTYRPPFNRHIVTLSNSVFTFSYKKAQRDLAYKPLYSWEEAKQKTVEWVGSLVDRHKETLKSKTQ

Compound	IC50 [nM]
N#Cc1cc(-c2ccc3c(n2)CCCC3=O)ccc1O [Compound 3, 2-hydroxy-5-(5-oxo-5,6,7,8-tetrahydroquinolin-2-yl)benzonitrile]	651
Oc1c(F)cc(-c2ccc3c(n2)CCCC3O)cc1F (centres unmarked) [Compound 13]	748
CC1(O)CCCc2nc(-c3cc(F)c(O)c(F)c3)ccc21 (centres unmarked) [Compound 14]	339
NC1CCCc2nc(-c3cc(F)c(O)c(F)c3)ccc21 (centres unmarked) [Compound 15]	3440
CC1(C)CCc2nc(-c3cc(F)c(O)c(F)c3)ccc2C1(O)Cc1ccccc1 (centres unmarked) [Compound 17]	227
CC1(C)CCc2nc(-c3ccc(O)c(F)c3)ccc2C1(C)O (centres unmarked) [Compound 18]	504
CC1(C)CCc2nc(-c3cc(F)c(O)c(F)c3)ccc2C1(O)c1ccccc1 (centres unmarked) [Compound 19]	314
O=C1CCCc2nc(-c3cnc(O)c(F)c3)ccc21 [Compound 21]	6100
O=C1CCc2nc(-c3cc(F)c(O)c(F)c3)ccc21 [Compound 22]	297
O=C1CCCc2nc(-c3cc(F)c(O)cc3F)ccc21 [Compound 24]	83
O=C1CCNc2nc(-c3cc(F)c(O)c(F)c3)ccc21 [Compound 26]	218
Cc1c(-c2ccc3c(n2)CCCC3=O)cc(F)c(O)c1F [Compound 27]	367
O=C1CCCc2nc(-c3c(F)c(F)c(O)c(F)c3F)ccc21 [Compound 28]	3000
O=C1c2ccc(-c3cc(F)c(O)c(F)c3)nc2CCC1CC1CC1 (centres unmarked) [Compound 29]	130
Cc1cc(-c2cc(F)c(O)c(F)c2)nc2c1C(=O)CCC2 [Compound 31]	991
O=C1CCCCc2nc(-c3cc(F)c(O)c(F)c3)ccc21 [Compound 32]	90
O=C(O)CC1CCc2nc(-c3cc(F)c(O)c(F)c3)ccc2C1=O (centres unmarked) [Compound 37]	2840
O=C1c2ccc(-c3cc(F)c(O)c(F)c3)nc2CCC1Cc1ccccn1 (centres unmarked) [Compound 38]	272
O=C1c2ccc(-c3cc(F)c(O)c(F)c3)nc2CCC1Cc1cccnc1 (centres unmarked) [Compound 39]	249
O=C1c2ccc(-c3cc(F)c(O)c(F)c3)nc2CCC1Cc1ccncc1 (centres unmarked) [Compound 40]	212
CCC1(O)CCCc2nc(-c3cc(F)c(O)c(F)c3)ccc21 (centres unmarked) [Compound 43]	365

Compound	IC50 [nM]
CCc1cc(-c2cc(F)c(O)c(F)c2)nc2c1C(=O)CCC2 [Compound 44]	1280
CC(C)c1cc(-c2cc(F)c(O)c(F)c2)nc2c1C(=O)CCC2 [Compound 45]	8610
O=C1c2ccc(-c3cc(F)c(O)c(F)c3)nc2CC[C@@H]1Cc1ccccc1 [Compound 47]	177
O=C1c2ccc(-c3cc(F)c(O)c(F)c3)nc2CC[C@H]1Cc1ccccc1 [Compound 48]	19
O=C1c2ccc(-c3cc(F)c(O)c(F)c3)nc2CCC1F (centres unmarked) [Compound 51]	149
COC1CCCc2nc(-c3cc(F)c(O)c(F)c3)ccc21 (centres unmarked) [Compound 53]	204
C[C@]1(Cc2ccccc2)CCc2nc(-c3cc(F)c(O)c(F)c3)ccc2C1=O [Compound 57]	78
C[C@@]1(Cc2ccccc2)CCc2nc(-c3cc(F)c(O)c(F)c3)ccc2C1=O [Compound 58]	55
O=C1c2ccc(-c3cc(F)c(O)cc3F)nc2CCC12CC2 [Compound 61]	127
O=C1c2ccc(-c3cc(F)c(O)c(F)c3)nc2CCC12COCOC2 [Compound 62]	541
O=C1CCOc2nc(-c3cc(F)c(O)c(F)c3)ccc21 [Compound 64]	433
O=C1CCCc2nc(-c3cc(F)c(O)c(F)c3)cnc21 [Compound 70]	7640
Oc1c(F)cc(-c2ccc3c(n2)CCCC3OCC2COC2)cc1F (centres unmarked) [Compound 74]	441
CCOC1CCCc2nc(-c3cc(F)c(O)c(F)c3)ccc21 (centres unmarked) [Compound 76]	389
Oc1c(F)cc(-c2ccc3c(n2)CCCC3OC2COC2)cc1F (centres unmarked) [Compound 77]	1070
COC1(C)CCCc2nc(-c3cc(F)c(O)c(F)c3)ccc21 (centres unmarked) [Compound 79]	38
CCN1CC(C)(C)C(=O)c2ccc(-c3cc(F)c(O)c(F)c3)nc21 [Compound 82]	326
COCCN1CC(C)(C)C(=O)c2ccc(-c3cc(F)c(O)c(F)c3)nc21 [Compound 83]	556
CC1(C)CCc2nc(-c3cc(F)c(O)cc3F)ncc2C1=O [Compound 85]	1540
COC1(C(C)C)CCCc2nc(-c3cc(F)c(O)c(F)c3)ccc21 (centres unmarked) [Compound 87]	45
CC1(C(F)(F)C(F)(F)F)CCc2nc(-c3cc(F)c(O)c(F)c3)ccc2C1=O (centres unmarked) [Compound 88]	78

Next, values leading:

IC50 [nM]	Compound
1860	CC1(C)CCc2nc(-c3ccc(O)c(C#N)c3)ccc2C1=O [Compound 4, 5-(6,6-dimethyl-5-oxo-5,6,7,8-tetrahydroquinolin-2-yl)-2-hydroxybenzonitrile]
51	CC1(C)CCc2nc(-c3ccc(O)c(F)c3)ccc2C1=O [Compound 6, 2-(3-fluoro-4-hydroxyphenyl)-6,6-dimethyl-7,8-dihydroquinolin-5(6H)-one]
49	O=C1CCCc2nc(-c3cc(F)c(O)c(Cl)c3)ccc21 [Compound 23]
303	O=C1c2ccc(-c3cc(F)c(O)c(F)c3)nc2CCC12CCC2 [Compound 30]
292	CC1(C)CCCc2nc(-c3cc(F)c(O)c(F)c3)ccc2C1=O [Compound 33]
446	CC1(O)CCc2nc(-c3cc(F)c(O)c(F)c3)ccc2C1=O (centres unmarked) [Compound 34]
92	CC1(C#N)CCc2nc(-c3cc(F)c(O)c(F)c3)ccc2C1=O (centres unmarked) [Compound 35]
59	CC1(C(F)(F)F)CCc2nc(-c3cc(F)c(O)c(F)c3)ccc2C1=O (centres unmarked) [Compound 36]
287	CC1(C)CC(=O)c2ccc(-c3cc(F)c(O)c(F)c3)nc2C1 [Compound 42]
42	CC1(F)CCc2nc(-c3cc(F)c(O)c(F)c3)ccc2C1=O (centres unmarked) [Compound 46]
26	CC1(C)CCc2nc(-c3ccc(O)c(Cl)c3)ccc2C1=O [Compound 49]
1500	CC1(C)CCc2nc(-c3ccc(O)c(C(F)(F)F)c3)ccc2C1=O [Compound 50]
222	CC1(CO)CCc2nc(-c3cc(F)c(O)c(F)c3)ccc2C1=O (centres unmarked) [Compound 52]
107	CC1(C)CCc2nc(-c3cc(F)c(O)c(Cl)c3)ccc2C1=O [Compound 54]
110	CC[C@]1(C)CCc2nc(-c3cc(F)c(O)c(F)c3)ccc2C1=O [Compound 56]
1170	CN(C)CC1(C)CCc2nc(-c3cc(F)c(O)c(F)c3)ccc2C1=O (centres unmarked) [Compound 60]

IC50 [nM]	Compound
370	O=C1c2ccc(-c3cc(F)c(O)c(F)c3)nc2CCC12COC2 [Compound 63]
> 20000	CC1(C)CCc2nc(-c3cnc(O)c(F)c3)ccc2C1=O [Compound 65]
414	CC1(C)CCc2nc(-c3cc(F)c(O)c(F)c3)ncc2C1=O [Compound 66]
1880	CC1(C)CCc2nc(-c3cc(F)c(O)c(C#N)c3)ccc2C1=O [Compound 67]
308	CN1CC(C)(C)C(=O)c2ccc(-c3cc(F)c(O)c(F)c3)nc21 [Compound 68]
470	CC1(C)CNc2nc(-c3cc(F)c(O)c(F)c3)ccc2C1=O [Compound 69]
67	Cc1cc(-c2ccc3c(n2)CCC(C)(C)C3=O)cc(F)c1O [Compound 71]
221	CC1(C)Cc2nc(-c3cc(F)c(O)c(F)c3)ccc2C1=O [Compound 72]
122	CC1(C)CCc2nc(-c3ccc(O)c(F)c3F)ccc2C1=O [Compound 73]
338	COCC1(C)CCc2nc(-c3cc(F)c(O)c(F)c3)ccc2C1=O (centres unmarked) [Compound 75]
2170	Cc1cc(-c2ccc3c(n2)CCC(C)(C)C3=O)cc(Cl)c1O [Compound 78]
152	CC1(C)CCc2nc(-c3cc(F)c(O)c(F)c3F)ccc2C1=O [Compound 80]
326	Cc1cc(-c2ccc3c(n2)CCC(C)(C)C3=O)c(F)c(F)c1O [Compound 81]
288	CC1(C)CCc2nc(-c3ccc(O)c(F)c3)ncc2C1=O [Compound 84]
1420	CC1(C2(O)COC2)CCc2nc(-c3cc(F)c(O)c(F)c3)ccc2C1=O (centres unmarked) [Compound 86]
188	CC1(CC(F)(F)F)CCc2nc(-c3cc(F)c(O)c(F)c3)ccc2C1=O (centres unmarked) [Compound 89]

Source: patent US20250241905A1, “3-BETA-HSD1 INHIBITORS AND COMPOSITIONS AND USES THEREOF” (The Cleveland Clinic Foundation, priority 2022, published 2025)
